According to publication PMC12332667, “Role of Structural Modifications in Peptidomimetic Compounds as Potential Antimicrobial Agents against Staphylococcus aureus and Streptococcus pyogenes: Balancing Bioavailability, Safety, and Antimicrobial Activity” (ACS Omega, 2025):
Converted amounts (≈) assume the structure as drawn.

What was measured:
S. intemrdius c.i. = assay: MIC/MBC broth microdilution, S. intermedius; format: cell-based, Staphylococcus intermedius
Protocol: (§1) S. aureus (ATCC 29213),S. pyogenes (ATCC 19615),Streptococcus agalactiae (ATCC 27956),Escherichia coli (ATCC 25922),Proteus vulgaris (ATCC 6896),K. pneumoniae (ATCC 700603) andP. aeruginosa (ATCC 10145) reference strains, as well asStaphylococcus cohnii, Enterococcus faecalis, Staphylococcus schleiferi, Staphylococcus intermedius and Streptococcus mutans clinical isolates, were used to test the antibacterial activity of the peptidomimetics. Bacteria were aerobically cultured for 18 h at 37 °C in plates with sterilized brain heart infusion (BHI) broth (Sigma-Aldrich, USA) media mixed with bacteriological agar (Sigma-Aldrich, USA) using the streak plate method. After 18 h, BHI broth was inoculated to 0.5 on the McFarland scale and diluted to approximately 10^5 CFU/mL. To achieve a final stock concentration of 1024 μg/mL, the peptidomimetics were dissolved in sterile water, and 5–10% of absolute ethanol or dimethyl sulfoxide (DMSO) was added. The antibacterial activities were determined by using the standard broth microdilution method of the National Committee for Clinical Laboratory Standards. The process involved adding serially diluted peptidomimetics to consecutive wells of a 96-well microtiter plate (Brand, Germany) holding media with microorganisms. The inoculated plates treated with peptides were then placed in an incubator at 37 °C for 18 h. The MIC value was determined as the lowest concentration of peptidomimetic at which there was no obvious growth (equal or more than 90% of the untreated sample). […] The lowest concentration yielding growth in no more than 3 colonies, corresponding to at least a 99.9% kill rate, was taken as MBC. Each biological replicate included control wells with the addition of water, DMSO, and ethanol as respective solvent controls. All experiments were conducted with consistent adherence to growth and sterility controls and were performed at least in technical triplicate with three biological repeats.

P. aeruginosa ATCC 10145 = assay: MIC/MBC broth microdilution, P. aeruginosa; format: cell-based
Protocol: as §1

[1] = test system: immortalized human HaCaT keratinocytes; assay: XTT cell proliferation assay, keratinocytes; format: cell-based
Protocol: (§2) In our study, we used two distinct cell types: immortalized human HaCaT keratinocytes (DKFZ, Heidelberg, Germany) and a human dermal fibroblast cell line (46BR.1N). […] Cultures were maintained in a humidified atmosphere with 5% CO2 at 37 °C in 25 cm^2 culture flasks with the medium replenished every 2 days. The condition of the cells was monitored using optical microscopy. […] After 24 h of incubation, the medium was replaced with serum-free HG-DMEM containing appropriate concentrations of peptidomimetics. All solutions used in the experiments were prepared with double-distilled water or with the addition of ethanol under sterile conditions to ensure compatibility with the conditions of the bacteriological assay. For 72 h of incubation, half of the medium was replaced with fresh medium after 48 h, and cells were stimulated with peptides for a second time. The XTT cell proliferation assay was then performed according to the manufacturer’s instructions (Roche, Switzerland). Cells were treated with the peptides for either 48 or 72 h, followed by the addition of XTT reagent, and the plates were then incubated at 37 °C in a 5% CO2 environment for 4 h. Plate readings were taken using a standard plate reader at a wavelength of 490 nm (OD = 490 nm). […] Statistical significance was determined with a Mann–Whitney U test with statistical significance p ≤ 0.05. Analysis was performed with Statistica software, and graphs were prepared in GraphPad Prism.

fibroblasts (46BR.1N) = assay: LDH cytotoxicity test, fibroblasts; format: cell-based; conditions: 48 h
Protocol: (§3) In our study, we used two distinct cell types: immortalized human HaCaT keratinocytes (DKFZ, Heidelberg, Germany) and a human dermal fibroblast cell line (46BR.1N). […] Cultures were maintained in a humidified atmosphere with 5% CO2 at 37 °C in 25 cm^2 culture flasks with the medium replenished every 2 days. The condition of the cells was monitored using optical microscopy.
(§4) Cell death in immortalized human keratinocytes (HaCaT) and fibroblasts (46BR.1N) was measured by quantifying the lactate dehydrogenase (LDH) activity using a commercial kit (Roche, Switzerland). Cells were seeded in 96-well plates at a density of 5000 cells per well in DMEM high glucose medium supplemented with 10% FBS. After 24 h of incubation, the medium was replaced with serum-free medium containing various concentrations of peptidomimetics (50, 100, and 150 μg/mL). After 48 h, supernatants were collected for LDH analysis. Plate readings were taken spectrophotometrically using a 450 nm wavelength. Cell death measurements were normalized to an untreated control (0%), with 1% Triton X-100 detergent used as a positive control to induce maximum LDH release, indicating maximal cytotoxicity. Statistical significance was determined with a Mann–Whitney U test with a statistical significance p ≤ 0.05. Analysis was performed with Statistica software (Krakow, Poland) and graphs were prepared in GraphPad Prism (Boston, USA).

S. aureus ATCC 43300 = assay: MIC/MBC broth microdilution, S. aureus; format: cell-based, Staphylococcus aureus; conditions: S. aureus
S. cohnii c.i. = assay: MIC/MBC broth microdilution, S. cohnii; format: cell-based, Staphylococcus cohnii
Protocol: as §1

[2] = test system: K. pneumoniae ATCC 700603; assay: MIC/MBC broth microdilution, K. pneumoniae; format: cell-based
Protocol: as §1

[3] = test system: immortalized human keratinocytes (HaCaT); assay: LDH cytotoxicity test, keratinocytes; format: cell-based; conditions: 48 h
Protocol: as §3, §4

[4] = test system: human dermal fibroblast cell line (46BR.1N); assay: XTT cell proliferation assay, fibroblasts; format: cell-based; conditions: XTT
Protocol: as §2

S. mutans c.i. = assay: MIC/MBC broth microdilution, S. mutans; format: cell-based, Streptococcus mutans
Protocol: as §1

E. coli ATCC 25922 = assay: MIC/MBC broth microdilution, E. coli; format: cell-based, Escherichia coli
Protocol: as §1

S. pyogenes ATCC 19615 = assay: MIC/MBC broth microdilution, S. pyogenes; format: cell-based, Streptococcus pyogenes; conditions: S. pyogenes
Protocol: as §1

S. agalactiae ATCC 27956 = assay: MIC/MBC broth microdilution, S. agalactiae; format: cell-based, Streptococcus agalactiae; conditions: S. agalactiae
Protocol: as §1

E. faecalis c.i. = assay: MIC/MBC broth microdilution, E. faecalis; format: cell-based, Enterococcus faecalis
Protocol: as §1

P. vulgaris ATCC 6896 = assay: MIC/MBC broth microdilution, P. vulgaris; format: cell-based, Proteus vulgaris
Protocol: as §1

S. schleiferi c.i. = assay: MIC/MBC broth microdilution, S. schleiferi; format: cell-based, Staphylococcus schleiferi
Protocol: as §1

## Cc1ccccc1COC(=O)N[C@@H](CCCNC(=N)N)C(=O)N[C@@H](CC(C)C)C(=O)N[C@H](CNC(=O)/C=C/c1ccccc1)C(C)C [Compound A-210]
S. intemrdius c.i.; H2O
  MBC: 16 mg/L (≈ 24.6 µM)
  MIC: 16 mg/L (≈ 24.6 µM)
S. intemrdius c.i.; water additive DMSO
  MBC: 16 mg/L (≈ 24.6 µM)
  MIC: 16 mg/L (≈ 24.6 µM)
S. intemrdius c.i.; water additive EtOH
  MBC: 16 mg/L (≈ 24.6 µM)
  MIC: 16 mg/L (≈ 24.6 µM)
P. aeruginosa ATCC 10145; H2O
  MIC: 512 mg/L (≈ 788 µM)
P. aeruginosa ATCC 10145; water additive DMSO
  MIC: 512 mg/L (≈ 788 µM)
P. aeruginosa ATCC 10145; water additive EtOH
  MBC: 512 mg/L (≈ 788 µM)
  MIC: 256 mg/L (≈ 394 µM)
[1]; 72 h
  proliferation: less than 50%
[1]; XTT, 150 μg/mL
  proliferation relative to control at 150 μg/mL (highest tested concentration): 50%
[1]; XTT, 48 and 72 h, 0.01–150 μg/mL
  effect on proliferation, in words: negative impact
Fibroblasts (46BR.1N); 50-150 μg/mL
  cytotoxicity (LDH), in words: no negative effect at 50 μg/mL concentration
Fibroblasts (46BR.1N); LDH
  concentration at which cytotoxic effect starts: 100 µg/mL
S. aureus ATCC 43300; H2O
  MIC: 32 mg/L (≈ 49.2 µM)
S. aureus ATCC 43300; water additive DMSO
  MIC: 32 mg/L (≈ 49.2 µM)
S. aureus ATCC 43300; water additive EtOH
  MBC: 32 mg/L (≈ 49.2 µM)
  MIC: 16 mg/L (≈ 24.6 µM)
S. cohnii c.i.; water additive DMSO
  MIC: 32 mg/L (≈ 49.2 µM)
S. cohnii c.i.; water additive EtOH
  MIC: 32 mg/L (≈ 49.2 µM)
[2]; H2O
  MIC: > 512 mg/L
[2]; water additive DMSO
  MIC: > 512 mg/L
[2]; water additive EtOH
  MIC: > 512 mg/L
[3]; 50-150 μg/mL
  cytotoxicity (LDH), in words: no negative effect at 50 μg/mL concentration
[3]; LDH
  concentration at which cytotoxic effect starts: 100 µg/mL
[4]; 150 μg/mL
  proliferation relative to control at 150 μg/mL (highest tested concentration): 50%
[4]; 48 and 72 h, 0.01–150 μg/mL
  effect on proliferation, in words: negative impact
S. mutans c.i.; H2O
  MIC: > 512 mg/L
S. mutans c.i.; water additive DMSO
  MIC: > 512 mg/L
S. mutans c.i.; water additive EtOH
  MIC: > 512 mg/L
E. coli ATCC 25922; H2O
  MIC: > 512 mg/L
E. coli ATCC 25922; water additive DMSO
  MIC: > 512 mg/L
E. coli ATCC 25922; water additive EtOH
  MIC: > 512 mg/L
S. pyogenes ATCC 19615; H2O
  MIC: 32 mg/L (≈ 49.2 µM)
S. pyogenes ATCC 19615; water additive DMSO
  MIC: 32 mg/L (≈ 49.2 µM)
S. pyogenes ATCC 19615; water additive EtOH
  MIC: 32 mg/L (≈ 49.2 µM)
S. agalactiae ATCC 27956; H2O
  MIC: 16 mg/L (≈ 24.6 µM)
S. agalactiae ATCC 27956; water additive DMSO
  MBC: 32 mg/L (≈ 49.2 µM)
  MIC: 16 mg/L (≈ 24.6 µM)
S. agalactiae ATCC 27956; water additive EtOH
  MIC: 32 mg/L (≈ 49.2 µM)
E. faecalis c.i.; H2O
  MBC: 256 mg/L (≈ 394 µM)
E. faecalis c.i.; water additive DMSO
  MBC: 256 mg/L (≈ 394 µM)
E. faecalis c.i.; water additive EtOH
  MBC: 256 mg/L (≈ 394 µM)
  MIC: 32 mg/L (≈ 49.2 µM)
P. vulgaris ATCC 6896; H2O
  MBC: 256 mg/L (≈ 394 µM)
P. vulgaris ATCC 6896; water additive DMSO
  MBC: 256 mg/L (≈ 394 µM)
S. schleiferi c.i.; H2O
  MBC: 8 mg/L (≈ 12.3 µM)
  MIC: 4 mg/L (≈ 6.16 µM)
S. schleiferi c.i.; water additive DMSO
  MBC: 16 mg/L (≈ 24.6 µM)
  MIC: 8 mg/L (≈ 12.3 µM)
S. schleiferi c.i.; water additive EtOH
  MBC: 8 mg/L (≈ 12.3 µM)
  MIC: 4 mg/L (≈ 6.16 µM)
